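The compound was tested at five concentrations on cells cultured in 96-well plates, with a 48-hour exposure period. TGI is the concentration that stops growth completely.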
Experiments:
Experiment in all cases: inhibition of tumour cell growth, NCI panel, 48 h
OVCAR-4 ovarian = test system: OVCAR-4 ovarian
SF-539 CNS = test system: SF-539 CNS
SK-MEL-5 melanoma = test system: SK-MEL-5 melanoma
MCF7 breast = test system: MCF7 breast
SNB-19 CNS = test system: SNB-19 CNS
HS 578T breast = test system: HS 578T breast
RXF 393 renal = test system: RXF 393 renal
OVCAR-3 ovarian = test system: OVCAR-3 ovarian
TK-10 renal = test system: TK-10 renal
NCI-H460 lung = test system: NCI-H460 lung
SK-OV-3 ovarian = test system: SK-OV-3 ovarian
EKVX NSCLC = test system: EKVX NSCLC
UACC-257 melanoma = test system: UACC-257 melanoma
BT-549 breast = test system: BT-549 breast
RPMI-8226 leukemia = test system: RPMI-8226 leukemia
OVCAR-5 ovarian = test system: OVCAR-5 ovarian
HT29 colon = test system: HT29 colon
LOX IMVI melanoma = test system: LOX IMVI melanoma
UACC-62 melanoma = test system: UACC-62 melanoma
MDA-MB-231 breast = test system: MDA-MB-231 breast
NCI-H226 lung = test system: NCI-H226 lung
MDA-MB-435 = test system: MDA-MB-435
MOLT-4 leukemia = test system: MOLT-4 leukemia
NCI-H23 lung = test system: NCI-H23 lung
NCI-H522 lung = test system: NCI-H522 lung
M14 melanoma = test system: M14 melanoma
NCI/ADR-RES ovarian = test system: NCI/ADR-RES ovarian
HCT-15 colon = test system: HCT-15 colon
SF-268 CNS = test system: SF-268 CNS
PC-3 prostate = test system: PC-3 prostate
ACHN renal = test system: ACHN renal
A549 NSCLC = test system: A549 NSCLC
MDA-N = test system: MDA-N
IGROV1 ovarian = test system: IGROV1 ovarian
DU-145 prostate = test system: DU-145 prostate
SF-295 CNS = test system: SF-295 CNS
HL-60(TB) leukemia = test system: HL-60(TB) leukemia
SK-MEL-2 melanoma = test system: SK-MEL-2 melanoma
COLO 205 colon = test system: COLO 205 colon
HOP-62 NSCLC = test system: HOP-62 NSCLC
OVCAR-8 ovarian = test system: OVCAR-8 ovarian
MALME-3M melanoma = test system: MALME-3M melanoma
UO-31 renal = test system: UO-31 renal
SK-MEL-28 melanoma = test system: SK-MEL-28 melanoma
K-562 leukemia = test system: K-562 leukemia
SN12C renal = test system: SN12C renal
U251 CNS = test system: U251 CNS
SW-620 colon = test system: SW-620 colon
HOP-92 NSCLC = test system: HOP-92 NSCLC
SR leukemia = test system: SR leukemia
KM12 colon = test system: KM12 colon
HCC-2998 colon = test system: HCC-2998 colon
HCT-116 colon = test system: HCT-116 colon
786-0 renal = test system: 786-0 renal
T-47D breast = test system: T-47D breast
A498 renal = test system: A498 renal
DMS 273 small cell lung = test system: DMS 273 small cell lung
SNB-75 CNS = test system: SNB-75 CNS
DLD-1 colon = test system: DLD-1 colon
KM20L2 colon = test system: KM20L2 colon
HOP-18 NSCLC = test system: HOP-18 NSCLC
M19-MEL melanoma = test system: M19-MEL melanoma
LXFL 529 NSCLC = test system: LXFL 529 NSCLC
DMS 114 small cell lung = test system: DMS 114 small cell lung
CCRF-CEM leukemia = test system: CCRF-CEM leukemia
XF 498 CNS = test system: XF 498 CNS
CAKI-1 renal = test system: CAKI-1 renal
SNB-78 CNS = test system: SNB-78 CNS

Measured: TGI

CC[C@H]1C=CCC[C@@]2(C[C@@H]3CC[C@@H]4[C@H](C(=O)OCCCCCCCCCCCCCCCC(=O)N(CCCN)C[C@@H](O)CCN)[C@]5(CCC[C@@H](C)O5)NC(=[N+]34)N2)O1
1.96 µM: PC-3 prostate
> 4.73 µM: ACHN renal
1.26 µM: MALME-3M melanoma
1.16 µM: HCT-116 colon
1.36 µM: HL-60(TB) leukemia
0.524 µM: MOLT-4 leukemia
2.41 µM: SF-268 CNS
0.173 µM: SK-MEL-5 melanoma
2.88 µM: HS 578T breast
4.39 µM: OVCAR-5 ovarian
1.58 µM: KM12 colon
> 5.62 µM: SN12C renal
2.15 µM: NCI-H460 lung
1.14 µM: MDA-N
2.38 µM: RXF 393 renal
> 10 µM: OVCAR-3 ovarian | NCI/ADR-RES ovarian | HCT-15 colon | DU-145 prostate
5.56 µM: T-47D breast
0.0599 µM: M14 melanoma
3.66 µM: NCI-H226 lung
2.37 µM: SF-539 CNS
0.721 µM: LOX IMVI melanoma
0.573 µM: UACC-257 melanoma | NCI-H522 lung
4.52 µM: TK-10 renal
1.65 µM: COLO 205 colon
1.64 µM: UO-31 renal
0.239 µM: UACC-62 melanoma
5.97 µM: MDA-MB-231 breast
0.397 µM: SR leukemia
2.87 µM: NCI-H23 lung
0.755 µM: RPMI-8226 leukemia
4.77 µM: SK-OV-3 ovarian
1.71 µM: MCF7 breast
2.61 µM: BT-549 breast
2.9 µM: SK-MEL-28 melanoma
0.673 µM: SK-MEL-2 melanoma
1.25 µM: A549 NSCLC
1.27 µM: SNB-19 CNS
2.94 µM: HOP-62 NSCLC
3.52 µM: SF-295 CNS
1.74 µM: A498 renal
1.23 µM: HT29 colon
0.469 µM: MDA-MB-435
> 5.94 µM: OVCAR-4 ovarian
0.793 µM: HCC-2998 colon
7.13 µM: OVCAR-8 ovarian
1.04 µM: 786-0 renal
> 3.82 µM: IGROV1 ovarian
1.01 µM: HOP-92 NSCLC
1.68 µM: U251 CNS
3.87 µM: SW-620 colon
2.49 µM: EKVX NSCLC
0.565 µM: K-562 leukemia

Cc1cc2occ(C)c(=O)c2c2c1OC(C)(C)S2
not listed: MCF7 breast | HS 578T breast | BT-549 breast | MDA-MB-231 breast | MDA-MB-435 | NCI/ADR-RES ovarian | PC-3 prostate | MDA-N | DU-145 prostate | T-47D breast | A498 renal | CAKI-1 renal | SNB-78 CNS
> 100 µM: all other assays above

CCOC(=O)/C=C(/CN1C(=O)c2ccccc2C1=O)c1ccccc1
not listed: MCF7 breast | HS 578T breast | BT-549 breast | MDA-MB-231 breast | MDA-MB-435 | NCI/ADR-RES ovarian | PC-3 prostate | MDA-N | DU-145 prostate | HL-60(TB) leukemia | SR leukemia | T-47D breast
> 100 µM: all other assays above
